Broadly, the Ki is a measure of affinity in units of concentration, obtained from inhibition or displacement. The low end stands for higher affinity, the high end for lower affinity. Usually IC50 stands for the concentration that gives 50% inhibition. The low end stands for greater potency in that assay, the high end for weaker potency in that assay.

Assay [1] addresses T1, 5-hydroxytryptamine receptor 1A (Homo sapiens, UniProt P08908).
T1 sequence (P08908 whole entry): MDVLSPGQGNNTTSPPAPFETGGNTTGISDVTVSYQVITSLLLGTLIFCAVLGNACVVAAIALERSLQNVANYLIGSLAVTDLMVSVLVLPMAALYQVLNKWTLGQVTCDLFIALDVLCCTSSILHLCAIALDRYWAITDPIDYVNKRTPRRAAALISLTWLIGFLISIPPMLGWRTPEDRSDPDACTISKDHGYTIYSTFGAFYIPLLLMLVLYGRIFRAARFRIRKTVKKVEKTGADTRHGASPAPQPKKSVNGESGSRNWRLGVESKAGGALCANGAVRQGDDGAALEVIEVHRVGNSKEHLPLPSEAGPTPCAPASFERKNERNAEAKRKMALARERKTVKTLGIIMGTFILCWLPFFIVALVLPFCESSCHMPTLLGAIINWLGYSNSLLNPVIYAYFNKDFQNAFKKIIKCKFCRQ
As to the kind of experiment: Displacement of [3H]8OH-DPAT from 5HT1A receptor. In general terms: Displacement assays read how much labelled ligand stays bound in the presence of the test substance.

Assay [2] deals with T2, D(3) dopamine receptor (Homo sapiens, UniProt P35462). As to the kind of experiment: Displacement of [125I]IABN from human dopamine D3 receptor expressed in HEK293 cells. Format: cell-based.
T2 sequence (P35462 whole entry): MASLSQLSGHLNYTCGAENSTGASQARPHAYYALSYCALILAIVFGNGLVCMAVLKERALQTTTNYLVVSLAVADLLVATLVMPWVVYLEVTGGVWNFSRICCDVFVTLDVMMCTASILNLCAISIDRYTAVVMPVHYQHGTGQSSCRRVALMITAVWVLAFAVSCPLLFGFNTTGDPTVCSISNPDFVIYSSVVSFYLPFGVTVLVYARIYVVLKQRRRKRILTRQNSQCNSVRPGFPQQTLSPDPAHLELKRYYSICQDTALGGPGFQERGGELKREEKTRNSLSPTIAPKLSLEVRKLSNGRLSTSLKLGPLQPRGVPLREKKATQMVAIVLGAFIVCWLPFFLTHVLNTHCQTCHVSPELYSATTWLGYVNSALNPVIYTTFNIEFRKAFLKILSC
Another assay addresses D(1A) dopamine receptor (Homo sapiens, UniProt P21728). As to the kind of experiment: Displacement of [3H]SCH23390 from dopamine D1 receptor.
Assay [3] addresses 5-hydroxytryptamine receptor 2A (Homo sapiens, UniProt P28223). As to the kind of experiment: Displacement of [3H]ketanserin from 5HT2A receptor.
For a further assay, the target named is T3, D(4) dopamine receptor (Homo sapiens, UniProt P21917).
T3 sequence (P21917 whole entry): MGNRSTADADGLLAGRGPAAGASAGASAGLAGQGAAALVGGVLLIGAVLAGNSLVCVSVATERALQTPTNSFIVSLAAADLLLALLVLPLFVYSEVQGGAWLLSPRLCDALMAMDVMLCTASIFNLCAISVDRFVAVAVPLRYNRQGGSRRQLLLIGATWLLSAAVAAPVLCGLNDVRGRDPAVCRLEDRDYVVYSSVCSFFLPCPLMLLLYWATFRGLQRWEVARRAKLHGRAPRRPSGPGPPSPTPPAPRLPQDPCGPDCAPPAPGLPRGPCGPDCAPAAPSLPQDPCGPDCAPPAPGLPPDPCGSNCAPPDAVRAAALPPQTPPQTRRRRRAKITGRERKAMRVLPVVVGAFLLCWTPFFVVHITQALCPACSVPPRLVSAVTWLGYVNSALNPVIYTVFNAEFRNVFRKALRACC
The assay is described as follows: Displacement of [125I]IABN from human dopamine D4 receptor.

In assay [4] the target is T4, D(2) dopamine receptor (Homo sapiens, UniProt P14416). As to the kind of experiment: Antagonist activity at dopamine D2 receptor. Format: functional.
T4 sequence (P14416 whole entry): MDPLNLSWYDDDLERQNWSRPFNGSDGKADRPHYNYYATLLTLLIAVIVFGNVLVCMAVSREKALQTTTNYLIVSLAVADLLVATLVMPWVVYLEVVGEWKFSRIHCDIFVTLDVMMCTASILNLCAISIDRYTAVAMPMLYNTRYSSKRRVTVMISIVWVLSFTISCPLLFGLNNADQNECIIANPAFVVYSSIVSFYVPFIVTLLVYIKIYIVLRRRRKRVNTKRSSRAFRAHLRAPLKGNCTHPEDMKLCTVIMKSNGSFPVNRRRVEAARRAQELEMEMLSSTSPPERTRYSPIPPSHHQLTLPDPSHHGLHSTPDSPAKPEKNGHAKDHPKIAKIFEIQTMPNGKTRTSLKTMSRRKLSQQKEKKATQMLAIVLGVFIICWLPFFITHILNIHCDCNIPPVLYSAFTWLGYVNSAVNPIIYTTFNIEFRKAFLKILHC
Assay [5] deals with T5, 5-hydroxytryptamine receptor 2C (Homo sapiens, UniProt P28335).
T5 sequence (P28335 whole entry): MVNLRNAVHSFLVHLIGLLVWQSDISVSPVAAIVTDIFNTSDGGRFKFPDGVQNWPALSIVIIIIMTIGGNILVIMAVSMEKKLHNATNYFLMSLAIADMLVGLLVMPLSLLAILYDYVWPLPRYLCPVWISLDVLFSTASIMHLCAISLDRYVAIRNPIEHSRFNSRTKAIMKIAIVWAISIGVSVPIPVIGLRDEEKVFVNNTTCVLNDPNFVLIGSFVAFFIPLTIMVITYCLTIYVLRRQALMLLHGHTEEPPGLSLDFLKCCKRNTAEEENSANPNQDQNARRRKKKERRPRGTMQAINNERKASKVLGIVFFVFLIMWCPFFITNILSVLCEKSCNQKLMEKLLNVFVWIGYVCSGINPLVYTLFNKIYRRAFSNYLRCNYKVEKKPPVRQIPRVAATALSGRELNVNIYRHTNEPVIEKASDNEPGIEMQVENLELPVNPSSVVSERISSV
As to the kind of experiment: Displacement of [3H]mesulergine from 5HT2C receptor.

In assay [6] the target is T4, D(2) dopamine receptor. The assay is described as follows: Displacement of [125I]IABN from human dopamine D2L receptor expressed in HEK293 cells. Format: cell-based.
Assay [7] deals with T2, D(3) dopamine receptor. The assay is described as follows: Antagonist activity at dopamine D3 receptor. Format: functional.

Bounds are passed on as bounds.

Sequence of 5-hydroxytryptamine receptor 2A (P28223 whole entry): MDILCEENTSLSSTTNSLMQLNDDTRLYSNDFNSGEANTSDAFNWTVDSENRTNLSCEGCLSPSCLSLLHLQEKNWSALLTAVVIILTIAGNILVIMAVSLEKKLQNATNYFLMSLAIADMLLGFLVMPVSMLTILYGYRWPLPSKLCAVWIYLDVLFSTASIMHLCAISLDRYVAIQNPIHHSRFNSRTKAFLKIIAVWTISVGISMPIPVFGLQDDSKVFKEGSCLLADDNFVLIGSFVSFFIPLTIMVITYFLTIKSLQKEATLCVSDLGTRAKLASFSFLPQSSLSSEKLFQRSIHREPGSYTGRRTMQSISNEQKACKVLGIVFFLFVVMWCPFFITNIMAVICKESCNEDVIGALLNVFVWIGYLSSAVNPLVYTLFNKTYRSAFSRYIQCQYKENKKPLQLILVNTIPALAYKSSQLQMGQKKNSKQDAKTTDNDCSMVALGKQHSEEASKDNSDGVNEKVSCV
Sequence of D(1A) dopamine receptor (P21728 whole entry): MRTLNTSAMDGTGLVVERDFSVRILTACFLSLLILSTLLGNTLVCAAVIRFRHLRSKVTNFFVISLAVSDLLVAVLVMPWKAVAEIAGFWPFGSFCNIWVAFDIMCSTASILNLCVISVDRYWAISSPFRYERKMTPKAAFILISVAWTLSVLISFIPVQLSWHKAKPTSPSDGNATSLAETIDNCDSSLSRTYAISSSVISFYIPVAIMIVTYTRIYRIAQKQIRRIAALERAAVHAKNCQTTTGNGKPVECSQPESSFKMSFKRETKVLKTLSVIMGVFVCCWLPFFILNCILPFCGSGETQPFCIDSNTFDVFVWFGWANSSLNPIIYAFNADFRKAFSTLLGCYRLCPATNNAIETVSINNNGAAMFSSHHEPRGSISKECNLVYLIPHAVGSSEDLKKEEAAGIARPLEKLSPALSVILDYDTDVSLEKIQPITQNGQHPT

Turning to `O[C@]1(c2ccc(Cl)cc2)C[C@H]2CC[C@@H](C1)N2Cc1c[nH]c2ccccc12`, the Ki in [1] was greater than 10 µM; on D(3) dopamine receptor [2], 0.0155 µM; on D(1A) dopamine receptor it was 1.22 µM; in assay [3] it was 4.77 µM; on D(4) dopamine receptor, greater than 5 µM; in assay [5], greater than 10 µM. At D(2) dopamine receptor [6], this compound registered an inhibition constant (Ki) of 0.0334 µM. For the same compound, the IC50 against D(2) dopamine receptor [4] is 0.0483 µM; against D(3) dopamine receptor [7], 0.0123 µM.
With `O[C@@]1(c2ccc(Cl)c(Cl)c2)C[C@H]2CC[C@@H](C1)N2Cc1c[nH]c2ccccc12`, the Ki in assay [1] is greater than 10 µM; on D(3) dopamine receptor [2], 0.00635 µM; in assay [3], 2.8 µM. Further, inhibition on D(3) dopamine receptor [7] was half-maximal at 0.0102 µM (IC50).
As to `O[C@@]1(c2cccc(Cl)c2Cl)C[C@H]2CC[C@@H](C1)N2Cc1c[nH]c2ccccc12`, the values for the Ki at D(3) dopamine receptor [2] and at D(2) dopamine receptor [6] were 0.48 µM and 0.545 µM, respectively.
As for `O[C@@]1(c2ccc(F)cc2)C[C@H]2CC[C@@H](C1)N2Cc1c[nH]c2ccccc12`, the Ki at D(3) dopamine receptor [2] was 0.031 µM.
In the case of `O[C@@]1(c2ccc3ccccc3c2)C[C@H]2CC[C@@H](C1)N2Cc1c[nH]c2ccccc12`, the Ki on D(3) dopamine receptor [2] turned out to be 0.224 µM; at D(2) dopamine receptor [6], 0.196 µM.
For `COc1ccccc1[C@]1(O)C[C@H]2CC[C@@H](C1)N2Cc1c[nH]c2ccccc12`, the Ki on D(3) dopamine receptor [2] amounted to 6.41 µM; on D(2) dopamine receptor [6], 2.07 µM.
Consider `CSc1ccc([C@]2(O)C[C@H]3CC[C@@H](C2)N3Cc2c[nH]c3ccccc23)cc1`, for which the inhibitory constant (Ki) on D(3) dopamine receptor [2] was 0.541 µM; on D(2) dopamine receptor [6] it was 0.565 µM.
Turning to `O[C@@]1(c2ccc(Cl)cc2)C[C@H]2CC[C@@H](C1)N2Cc1n[nH]c2ccccc12`, the results for the inhibitory constant (Ki) at D(3) dopamine receptor [2] and on D(2) dopamine receptor [6] were 0.0847 µM and 0.225 µM, respectively.
At D(3) dopamine receptor [2], `COc1ccc2[nH]cc(CN3[C@@H]4CC[C@H]3C[C@](O)(c3ccc(Cl)cc3)C4)c2c1` yielded a Ki of 0.0212 µM.
For `COc1ccc2[nH]cc(CN3[C@@H]4CC[C@H]3C[C@](O)(c3ccc(SC)cc3)C4)c2c1`, the Ki on D(3) dopamine receptor [2] was found to be 1.21 µM; at D(2) dopamine receptor [6], 0.554 µM.
Take `O[C@@]1(c2ccc(Cl)cc2)C[C@H]2CC[C@@H](C1)N2Cc1csc2ccccc12`: the inhibitory constant (Ki) in assay [1] was 1.72 µM; on D(3) dopamine receptor [2], 0.00362 µM; at D(1A) dopamine receptor, 3 µM; on D(4) dopamine receptor it was 0.14 µM; in assay [5] it was greater than 10 µM; on D(2) dopamine receptor [6] it was 0.0129 µM. For the same compound, the results for the half-inhibitory concentration (IC50) at D(2) dopamine receptor [4] and at D(3) dopamine receptor [7] were 0.0262 µM and 0.0042 µM, respectively.
For `O[C@@]1(c2cccc(Cl)c2Cl)C[C@H]2CC[C@@H](C1)N2Cc1csc2ccccc12`, the values for the Ki at D(3) dopamine receptor [2] and at D(2) dopamine receptor [6] were 0.431 µM and 0.28 µM, respectively.
Take `O[C@@]1(c2ccc(Cl)cc2)C[C@H]2CC[C@@H](C1)N2Cc1coc2ccccc12`: the inhibition constant Ki at D(3) dopamine receptor [2] was 0.00071 µM; in [5], greater than 10 µM. Further, the concentration for half-maximal inhibition (IC50) at D(3) dopamine receptor [7] is 0.00085 µM.
On to `O[C@]1(c2ccc(Cl)c(Cl)c2)C[C@H]2CC[C@@H](C1)N2Cc1coc2ccccc12`, for which the inhibition constant (Ki) on D(3) dopamine receptor [2] worked out at 0.00034 µM; at D(2) dopamine receptor [6], 0.0017 µM.
With `O[C@@]1(c2cccc(Cl)c2Cl)C[C@H]2CC[C@@H](C1)N2Cc1coc2ccccc12`, on D(3) dopamine receptor [2], the affinity corresponds to a Ki of 0.0322 µM.
On to `O[C@@]1(c2ccc(F)cc2)C[C@H]2CC[C@@H](C1)N2Cc1coc2ccccc12`, for which the Ki on D(3) dopamine receptor [2] is 0.0012 µM; on D(2) dopamine receptor [6], 0.0049 µM.
With `O[C@@]1(c2ccc(Br)cc2)C[C@H]2CC[C@@H](C1)N2Cc1coc2ccccc12`, the inhibitory constant (Ki) came to 0.00092 µM at D(3) dopamine receptor [2] and 0.0015 µM on D(2) dopamine receptor [6].
In the same order, the values of `O[C@@]1(c2ccc(Cl)cc2)C[C@H]2CC[C@@H](C1)N2Cc1coc2ccc(F)cc12` are 0.00037 µM and 0.0012 µM.
As for `O[C@@]1(c2ccc(Cl)cc2)C[C@H]2CC[C@@H](C1)N2Cc1coc2ccc3ccccc3c12`, the inhibition constant Ki on D(3) dopamine receptor [2] stood at 0.0084 µM; on D(2) dopamine receptor [6], 0.0117 µM.
Consider `O[C@@]1(c2ccc(Cl)cc2)C[C@H]2CC[C@@H](C1)N2Cc1coc2c1ccc1ccccc12`, for which the inhibition constant (Ki) on D(3) dopamine receptor [2] was 0.002 µM; at D(2) dopamine receptor [6] it was 0.0056 µM.
In the same order, the values of `O[C@@]1(c2ccc(Cl)c(Cl)c2)C[C@H]2CC[C@@H](C1)N2Cc1coc2ccc(F)cc12` are 0.00053 µM and 0.0014 µM.
As to `OC1(c2ccc(Cl)cc2)CCN(Cc2c[nH]c3ccccc23)CC1`, the Ki on D(4) dopamine receptor amounted to 1.1 µM. The compound also yielded a concentration for half-maximal inhibition (IC50) against D(3) dopamine receptor [7] of 0.0904 µM.
Take `COc1ccc2occ(CN3[C@@H]4CC[C@H]3C[C@](O)(c3ccc(Cl)cc3)C4)c2c1` (single isomer, unassigned): the Ki worked out at 0.0021 µM at D(3) dopamine receptor [2] and 0.0015 µM at D(2) dopamine receptor [6].

Values taken from ChEMBL document CHEMBL1140093, “Structure-activity relationships for a novel series of dopamine D2-like receptor ligands based on N-substituted 3-aryl-8-azabicyclo[3.2.1]octan-3-ol” (J Med Chem, 2008).
